Assay [1] relates to Candida albicans (IFO 0538). Put plainly: Antifungal activity against Candida albicans, paper disc growth inhibition zone (Tables 5 and 6). It counts as cell-based. The settings on record: 48 h, pH 7, B medium (yeast nitrogen base agar, pH 7.0), 28° C., 2 days incubation; read-out: Inhibition zone diameter. Here is the method: (§1) The antifungal activities of the compounds (I) were evaluated by the following method: a sheet of filter paper disc (manufactured by Toyo Seisakusho, 8 mm in diameter) soaked in a 1000 μg/ml solution of a compound (I) in methanol was placed on an agar plate, which was incubated at 28° C. for 2 days, and the diameter of the growth inhibition zone around the filter paper disc was measured. The following culture media were used:
(§2) A: yeast nitrogen base agar medium
B: yeast nitrogen base agar medium (pH 7.0)

Assay [2] relates to Penicillium chrysogenum IFO 4626. Kind of assay: Antifungal activity, paper disc growth inhibition zone (Table 4). It counts as cell-based. The conditions noted are these: IFO4626, 48 h, medium A, 28° C., 2 days, disc soaked in 1000 μg/ml solution in methanol, read-out: Inhibition zone diameter. The procedure: as §1, §2
In assay [3] the test system is Aspergillus fumigatus IFO 6344. The description is as above. The settings on record: IFO6344, 48 h, medium A, 28° C., 2 days, disc soaked in 1000 μg/ml solution in methanol, read-out: Inhibition zone diameter. Type of assay: cell-based. The procedure: as §1, §2
Assay [4] concerns Candida albicans IFO 0583. Described as above. It counts as cell-based. The conditions noted are these: IFO0583, 48 h, medium A, 28° C., 2 days, disc soaked in 1000 μg/ml solution in methanol, read-out: Inhibition zone diameter. Here is the method: as §1, §2
The subject of assay [5] is Candida albicans (Ca--O) IFO 0583. Described as above. Type of assay: cell-based. The conditions noted are these: IFO0583, 48 h, medium A, 28° C., 2 days, disc soaked in 1000 μg/ml solution in methanol, read-out: Inhibition zone diameter. Here is the method: as §1, §2
Assay [6] has as its system Aspergillus niger IFO 4066. The assay is described as above. It counts as cell-based. The settings on record: IFO4066, 48 h, medium A, 28° C., 2 days, disc soaked in 1000 μg/ml solution in methanol, read-out: Inhibition zone diameter. Here is the method:
as §1, §2

Assay [7] concerns Candida albicans. Put plainly: Infection-preventing effect in experimental infection in mice, Method 1 (Table 7-1). The conditions noted are these: Candida albicans, 168 h, given 0 and 2 hours after infection, survival 7 days after infection, total dose, read-out: ED50. Type of assay: in vivo, Crj:CDF1 mice. Here is the method: Method 1 (Table 7-1): To 5-week-old Crj:CDF1 mice the minimum lethal dose of Candida albicans was inoculated intravenously. The test drug was given twice 0 and 2 hours after infection. The effectiveness of the drug was expressed in ED50 values calculated by the Reed and Muench method from the survival rate 7 days after infection. The ED50 values were calculated based on the total dose given on the two occasions.

The test system of assay [8] is Trichophyton mentagrophytes IFO 7522. Kind of assay: Antifungal activity, paper disc growth inhibition zone (Table 4). It counts as cell-based. The conditions noted are these: IFO7522, 48 h, medium C (Sabouraud agar), 28° C., 2 days, disc soaked in 1000 μg/ml solution in methanol, read-out: Inhibition zone diameter. Here is the method:
(§3) The antifungal activities of the compounds (I) were evaluated by the following method: a sheet of filter paper disc (manufactured by Toyo Seisakusho, 8 mm in diameter) soaked in a 1000 μg/ml solution of a compound (I) in methanol was placed on an agar plate, which was incubated at 28° C. for 2 days, and the diameter of the growth inhibition zone around the filter paper disc was measured.

In assay [9] the test system is Trichophyton rubrum IFO 6467. The description is as above. Type of assay: cell-based. The conditions noted are these: IFO6467, 48 h, medium C (Sabouraud agar), 28° C., 2 days, disc soaked in 1000 μg/ml solution in methanol, read-out: Inhibition zone diameter. Here is the method:
as §3

Assay [10] concerns Microsporum gypseum IFO 6075. Described as above. Type of assay: cell-based. The settings on record: Nannizzia gypsea, IFO6075, 48 h; medium C (Sabouraud agar), 28° C., 2 days, disc soaked in 1000 μg/ml solution in methanol; read-out: Inhibition zone diameter. The procedure: as §3
The test system of assay [11] is Candida albicans. Kind of assay: Infection-preventing effect in experimental infection in mice, Method 2 (Table 7-2). Type of assay: in vivo, Crj:CDF1 mice. The conditions noted are these: po, 168 h, p.o., given just after infection, survival 7 days after infection. Here is the method: Method 2 (Table 7-2): To 5-week-old Crj:CDF1 mice the minimum lethal dose of Candida albicans was inoculated intravenously. The test drug was given just after infection. The effectiveness of the drug was expressed in ED50 values calculated by the Reed and Muench method from the survival rate 7 days after infection. The ED50 values were calculated based on the […].

Bounds are passed on as bounds.

As usually defined, the ED50 is the midpoint of the dose-response relation. Turning to `C[C@@H](Sc1nc2c(s1)CCC2)[C@](O)(Cn1cncn1)c1ccc(F)cc1F` (relative stereo) [Compound 12], the zone of inhibition at 1000 µg/mL came out at 25 mm in assay [1]; 15 mm in assay [2]; 38 mm in [3]; 42 mm in [4]; 41 mm in assay [5]; 20 mm in assay [6]. Also, the figures for the zone of inhibition at 1000 µg/mL in [8], in assay [9] and in assay [10] were 32 mm, 35 mm and 35 mm, respectively. Also, in the assay on Candida albicans [7] (sc, s.c.), the ED50 was 2.5 mg/kg.

As for `C[C@@H](SCc1ccncc1)[C@](O)(Cn1cncn1)c1ccc(F)cc1F` (relative stereo) [Compound 15], the zone of inhibition at 1000 µg/mL in assay [1] worked out at 25 mm; in assay [2], 23 mm; in [3], 30 mm; in assay [4], 34 mm; in assay [5] it was 32 mm; in [6], 29 mm. Besides, the values for the zone of inhibition at 1000 µg/mL in assay [8], in assay [9] and in assay [10] were 50 mm, 60 mm and 45 mm, respectively. In addition, the ED50 with Candida albicans [7] (sc, s.c.) stood at 2.5 mg/kg.

As to `C[C@H](S)[C@@](O)(Cn1cncn1)c1ccc(F)cc1F` [Compound 42, (2S,3S)-2-(2,4-difluorophenyl)-3-mercapto-1-(1H-1,2,4-triazol-1-yl)-2-butanol], the zone of inhibition at 1000 µg/mL in assay [1] is 34 mm. Moreover, in the assay with Candida albicans [11], the ED50 is above 4 mg/kg.

With `C[C@@H](SCc1nccn1C)[C@](O)(Cn1cncn1)c1ccc(F)cc1F` [Compound 78], the zone of inhibition at 1000 µg/mL in assay [1] is 30 mm. The ED50 in the assay on Candida albicans [11] was 0.5 mg/kg.

As to `C[C@@H](SCc1cncn1C)[C@](O)(Cn1cncn1)c1ccc(F)cc1F` [Compound 91], in assay [1], the zone of inhibition at 1000 µg/mL is 30 mm. The compound further had a 50% effective dose (ED50) with Candida albicans [11] below 0.25 mg/kg.

For the compound `C[C@@H](SCc1ncc2n1CCC2)[C@](O)(Cn1cncn1)c1ccc(F)cc1F` [Compound 97], the zone of inhibition at 1000 µg/mL in assay [1] turned out to be 27 mm. For the same compound, the ED50 with Candida albicans [11] was determined as 0.5 mg/kg.

Take `Cc1csc(CS[C@H](C)[C@](O)(Cn2cncn2)c2ccc(F)cc2F)n1` [Compound 99]: in assay [1], the zone of inhibition at 1000 µg/mL came to 35 mm. The ED50 in the assay on Candida albicans [11] was found to be 1.4 mg/kg.

In the case of `Cc1nc(CS[C@H](C)[C@](O)(Cn2cncn2)c2ccc(F)cc2F)cs1` [Compound 107], in assay [1], the zone of inhibition at 1000 µg/mL was 33 mm. Also, the ED50 was below 0.5 mg/kg in the assay with Candida albicans [7] (po, p.o.); 0.71 mg/kg in the assay with Candida albicans [7] (sc, s.c.); 0.39 mg/kg in the assay on Candida albicans [11].

Consider `Cc1ncc(CS[C@H](C)[C@](O)(Cn2cncn2)c2ccc(F)cc2F)s1` [Compound 108], for which the zone of inhibition at 1000 µg/mL in [1] is 40 mm. Also, the median effective dose (ED50) with Candida albicans [11] was determined as 1.4 mg/kg.

Consider `C[C@@H](SCc1nccn1CC(F)F)[C@](O)(Cn1cncn1)c1ccc(F)cc1F` [Compound 109], for which, in [1], the zone of inhibition at 1000 µg/mL is 28 mm. For the same compound, the 50% effect level in the assay with Candida albicans [11] (ED50) was put at a dose of 0.5 mg/kg.

As to `C[C@@H](SCc1nccn1C1CC1)[C@](O)(Cn1cncn1)c1ccc(F)cc1F` [Compound 110], the zone of inhibition at 1000 µg/mL in assay [1] was 40 mm. Also, the ED50 was 0.35 mg/kg with Candida albicans [7] (po, p.o.) and 0.35 mg/kg in the assay with Candida albicans [7] (sc, s.c.).

For `Cc1oc(=O)oc1CS[C@H](C)[C@](O)(Cn1cncn1)c1ccc(F)cc1F` [Compound 111], the zone of inhibition at 1000 µg/mL in [1] came out at 35 mm. In addition, the ED50 with Candida albicans [7] (po, p.o.) was 0.89 mg/kg; with Candida albicans [7] (sc, s.c.), 0.71 mg/kg.

Regarding `C[C@@H](SCc1ncc2cnccn12)[C@](O)(Cn1cncn1)c1ccc(F)cc1F` [Compound 112], the zone of inhibition at 1000 µg/mL in [1] worked out at 30 mm. Further, in the assay on Candida albicans [11], the ED50 is 0.5 mg/kg.

On to `C[C@@H](SCc1nncn1C1CC1)[C@](O)(Cn1cncn1)c1ccc(F)cc1F` [Compound 114], for which the zone of inhibition at 1000 µg/mL in assay [1] was found to be 15 mm. The same compound showed an ED50 with Candida albicans [11] of 0.4 mg/kg.

Regarding `C[C@@H](S)[C@@](O)(Cn1cncn1)c1ccc(F)cc1F` [Compound 117, (2S,3R)-2-(2,4-difluorophenyl)-3-mercapto-1-(1 H-1,2,4-triazol-1-yl)-2-butanol], the zone of inhibition at 1000 µg/mL in assay [1] came to 25 mm. This compound also gave an ED50 with Candida albicans [11] above 4 mg/kg.

Consider `C[C@H](S)[C@](O)(Cn1cncn1)c1ccc(F)cc1F` [Compound 118, (2R,3S)-2-(2,4-difluorophenyl)-3-mercapto-1-(1H-1,2,4-triazol-1-yl)-2-butanol], for which the zone of inhibition at 1000 µg/mL in assay [1] is 33 mm. Also, the ED50 in the assay on Candida albicans [11] was 2.8 mg/kg.

Consider `CC(C)(S)C(O)(Cn1cncn1)c1ccc(F)cc1F` (stereo not drawn) [Compound 119], for which the zone of inhibition at 1000 µg/mL in assay [1] came out at 30 mm. The compound also showed an ED50 in the assay with Candida albicans [11] of 0.18 mg/kg.

With `OC(Cn1cncn1)(c1ccc(F)cc1F)C1(S)CC1` (stereo not drawn) [Compound 120], the zone of inhibition at 1000 µg/mL in [1] is 30 mm. The compound also yielded an ED50 in the assay on Candida albicans [11] of 0.35 mg/kg.

Turning to `C[C@@H](SCc1csc(N)n1)[C@](O)(Cn1cncn1)c1ccc(F)cc1F` [Compound 121], the zone of inhibition at 1000 µg/mL in assay [1] worked out at 35 mm. Besides, the ED50 in the assay on Candida albicans [11] is 0.5 mg/kg.

On to `C[C@@H](SCc1csc(C(F)(F)F)n1)[C@](O)(Cn1cncn1)c1ccc(F)cc1F` [Compound 122], for which the zone of inhibition at 1000 µg/mL in [1] was 35 mm. It took a dose of 0.5 mg/kg to reach the 50% effect level in the assay on Candida albicans [11] (ED50).

Turning to `C[C@@H](SCc1csc(C2CC2)n1)[C@](O)(Cn1cncn1)c1ccc(F)cc1F` [Compound 123], the zone of inhibition at 1000 µg/mL in assay [1] came out at 35 mm. This compound yielded an ED50 with Candida albicans [11] of 0.5 mg/kg.

As to `C[C@@H](SCc1cn2ccncc2n1)[C@](O)(Cn1cncn1)c1ccc(F)cc1F` [Compound 124], the zone of inhibition at 1000 µg/mL in assay [1] stood at 30 mm. It took a dose of 0.7 mg/kg to reach the 50% effect level with Candida albicans [11] (ED50).

With `C[C@@H](SCc1cn2cccnc2n1)[C@](O)(Cn1cncn1)c1ccc(F)cc1F` [Compound 125], the zone of inhibition at 1000 µg/mL in assay [1] came to 33 mm. The ED50 with Candida albicans [11] turned out to be 0.5 mg/kg.

With `C[C@@H](SCc1ccncn1)[C@](O)(Cn1cncn1)c1ccc(F)cc1F` [Compound 126], the zone of inhibition at 1000 µg/mL in [1] is 38 mm. The ED50 in the assay on Candida albicans [11] was determined as 2 mg/kg.

For the compound `Cc1nccc(CS[C@H](C)[C@](O)(Cn2cncn2)c2ccc(F)cc2F)n1` [Compound 127], in assay [1], the zone of inhibition at 1000 µg/mL stood at 33 mm. This compound also had an ED50 with Candida albicans [11] of 2 mg/kg.

Regarding `C[C@@H](SCc1nsc(N)n1)[C@](O)(Cn1cncn1)c1ccc(F)cc1F` [Compound 128], the zone of inhibition at 1000 µg/mL in assay [1] came to 30 mm. In the assay with Candida albicans [11], the ED50 turned out to be 2 mg/kg.

For `C[C@@H](SCc1cnc2cccnn12)[C@](O)(Cn1cncn1)c1ccc(F)cc1F` [Compound 129], in [1], the zone of inhibition at 1000 µg/mL stood at 35 mm. In the assay with Candida albicans [11], the ED50 came to 0.5 mg/kg.

As for `C[C@@H](SCc1ncc2ncccn12)[C@](O)(Cn1cncn1)c1ccc(F)cc1F` [Compound 130], the zone of inhibition at 1000 µg/mL in assay [1] came out at 35 mm. For the same compound, it took a dose of 0.7 mg/kg to reach the 50% effect level with Candida albicans [11] (ED50).

For `C[C@@H](SCc1ncc2cccnn12)[C@](O)(Cn1cncn1)c1ccc(F)cc1F` [Compound 131], the zone of inhibition at 1000 µg/mL in [1] stood at 40 mm. For the same compound, the 50% effect level with Candida albicans [11] (ED50) was put at a dose of 0.7 mg/kg.
